Experimental data: US9434994B2, “Methods for prediction of clinical outcome to epidermal growth factor receptor inhibitors by non-small cell lung cancer patients” (The Regents of the University of Colorado, a body corporate, priority 2004, dated 2016)
Where two headings read alike, the source gives them in different places.

Tested on: NSCLC patients
[1] = EGFR FISH+/EGFR mutation+ (17 patients)
[2] = FISH +, IHC +, EGFR Mut +, n 12
[3] = FISH +, IHC +, EGFR Mut −, n 20
[4] = FISH −, IHC +, EGFR Mut +, n 12
[5] = FISH −, IHC +, EGFR Mut −, n 39
[6] = FISH −, IHC −, EGFR Mut −, n 37
[7] = FISH+ or EGFR + (EGFR mutation), 46 pts
[8] = FISH+/EGFR+ (EGFR mutation), 17 pts
[9] = FISH−/EGFR− (EGFR mutation), 80 pts
[10] = triple positive: EGFR FISH, EGFR IHC, P-AKT
[11] = triple positive: EGFR FISH, IHC, mutation (12 patients)

Text: In order to make a more substantial statistical analysis and power, the inventors have analyzed the combined data set, which includes altogether 204 patients with NSCLC.
The multivariable analysis is based on an initial univariable analysis including clinical- and biological markers by using backward stepwise regression methods. All univariately significant covariates were included in the stepwise selection.

Compound: COc1cc2ncnc(Nc3ccc(F)c(Cl)c3)c2cc1OCCCN1CCOCC1 [gefitinib]
- HR, survival, multivariable (Current/Former smokers): 2.68
- DC (disease control) (EGFR FISH+): 65%
- MS (95% CI) (EGFR FISH+): 18 (14-21) months
- OR (overall response) (EGFR FISH+): 33%
- TTP, median (95% CI) (EGFR FISH+): 9 (5-10) months
- 1-yr survival (EGFR FISH+ or IHC+): 44% (33-55)
- DCR (EGFR FISH+ or IHC+): 43%
- MS (EGFR FISH+ or IHC+): 11 (7-15) mo
- RSP (EGFR FISH+ or IHC+): 10%
- TTP (EGFR FISH+ or IHC+): 3 (2-5) mo
- Disease Control Rate [1]: 69%
- response rate [1]: 69%
- time to progression [1]: 16 months
- Median Survival (EGFR FISH+/EGFR mutation+, not yet achieved): exceeding 20 months
- DCR (EGFR FISH+/IHC+): 76%
- MS (EGFR FISH+/IHC+): 21 (15-21) mo
- RSP (EGFR FISH+/IHC+): 41%
- TTP (EGFR FISH+/IHC+): 9 (6-16) mo
- DC (disease control) (EGFR FISH-): 30%
- MS (95% CI) (EGFR FISH-): 8 (6-11) months
- OR (overall response) (EGFR FISH-): 6%
- TTP, median (95% CI) (EGFR FISH-): 3 (2-3) months
- Disease Control Rate (EGFR FISH-/EGFR mutation-): 29%
- response rate (EGFR FISH-/EGFR mutation-): 3%
- time to progression (EGFR FISH-/EGFR mutation-): 3 month
- DCR (EGFR FISH-/IHC-): 17%
- MS (EGFR FISH-/IHC-): 6 (4-8) mo
- RSP (EGFR FISH-/IHC-): 2%
- TTP (EGFR FISH-/IHC-): 2 (2-3) mo
- DC (disease control) (EGFR IHC+): 56%
- MS (95% CI) (EGFR IHC+): 14 (11-21) months
- OR (overall response) (EGFR IHC+): 22%
- TTP, median (95% CI) (EGFR IHC+): 5 (3-7) months
- DC (disease control) (EGFR IHC-): 27%
- HR, survival, multivariable (EGFR IHC-): 1.70
- MS (95% CI) (EGFR IHC-): 7 (5-10) months
- OR (overall response) (EGFR IHC-): 5%
- TTP, median (95% CI) (EGFR IHC-): 3 (2-3) months
- DC (disease control) (EGFR Mutation+): 52%
- MS (95% CI) (EGFR Mutation+): 13 (6-21)
- OR (overall response) (EGFR Mutation+): 39%
- TTP, median (95% CI) (EGFR Mutation+): 3 (2-11)
- DC (disease control) (EGFR Mutation-): 37%
- MS (95% CI) (EGFR Mutation-): 11 (7-13)
- OR (overall response) (EGFR Mutation-): 7%
- TTP, median (95% CI) (EGFR Mutation-): 3 (2-4)
- 1-yr survival (EGFR mutation+ or IHC+): 50% (39-61)
- DCR (EGFR mutation+ or IHC+): 47%
- MS (EGFR mutation+ or IHC+): 12 (8-15) mo
- RSP (EGFR mutation+ or IHC+): 12%
- TTP (EGFR mutation+ or IHC+): 3 (2-5) mo
- 1-yr survival (EGFR mutation+/IHC+): 63% (45-81)
- MS (EGFR mutation+/IHC+): 21 (10-21) mo
- RSP (EGFR mutation+/IHC+): 50%
- TTP (EGFR mutation+/IHC+): 10 (2-16) mo
- MS (EGFR mutation-/IHC-): 7 (5-12) mo
- RSP (EGFR mutation-/IHC-): 2%
- TTP (EGFR mutation-/IHC-): 2 (2-3) mo
- 1-yr surv [2]: 100%
- DCR [2]: 78%
- OR (response rate) [2]: 78%
- TTP [2]: 20 (11-20) months
- 1-yr surv [3]: 64% (42-86)
- OR (response rate) [3]: 22%
- OS (median survival) [3]: 15 (6-16) months
- TTP [3]: 5 (3-12) months
- 1-yr surv (FISH +, IHC +, P-AKT +, N 34): 84% (70-97)
- DCR (FISH +, IHC +, P-AKT +, N 34): 80%
- OR (response rate) (FISH +, IHC +, P-AKT +, N 34): 43%
- TTP (FISH +, IHC +, P-AKT +, N 34): 12 (6-19) months
- 1-yr surv (FISH +, IHC +, P-AKT −, N 4): 75% (33-100)
- OR (response rate) (FISH +, IHC +, P-AKT −, N 4): 0%
- OS (median survival) (FISH +, IHC +, P-AKT −, N 4): 18 (5-18) months
- TTP (FISH +, IHC +, P-AKT −, N 4): 9 (2-9) months
- 1-yr surv (FISH +, IHC −, EGFR Mut +, n 5): 60% (17-100)
- DCR (FISH +, IHC −, EGFR Mut +, n 5): 50%
- OR (response rate) (FISH +, IHC −, EGFR Mut +, n 5): 50%
- TTP (FISH +, IHC −, EGFR Mut +, n 5): 3 (2-9) months
- 1-yr surv (FISH +, IHC −, EGFR Mut −, n 8): 38% (7-66)
- DCR (FISH +, IHC −, EGFR Mut −, n 8): 39%
- OR (response rate) (FISH +, IHC −, EGFR Mut −, n 8): 0%
- OS (median survival) (FISH +, IHC −, EGFR Mut −, n 8): 9 (1-9) months
- TTP (FISH +, IHC −, EGFR Mut −, n 8): 2 (1-6) months
- 1-yr surv (FISH +, IHC −, P-AKT +, N 15): 53% (28-79)
- DCR (FISH +, IHC −, P-AKT +, N 15): 46%
- OR (response rate) (FISH +, IHC −, P-AKT +, N 15): 15%
- OS (median survival) (FISH +, IHC −, P-AKT +, N 15): 14 (3-19) months
- TTP (FISH +, IHC −, P-AKT +, N 15): 3 (2-6) months
- 1-yr surv (FISH +, IHC −, P-AKT −, N 2): 0% (0-69)
- DCR (FISH +, IHC −, P-AKT −, N 2): 0%
- OR (response rate) (FISH +, IHC −, P-AKT −, N 2): 0%
- OS (median survival) (FISH +, IHC −, P-AKT −, N 2): 9 (NA) months
- TTP (FISH +, IHC −, P-AKT −, N 2): 2 (NA) months
- 1-yr surv [4]: 42% (1470)
- DCR [4]: 44%
- OR (response rate) [4]: 22%
- OS (median survival) [4]: 11 (3-11) months
- TTP [4]: 4 (2-7) months
- 1-yr surv [5]: 49% (33-64)
- DCR [5]: 41%
- OR (response rate) [5]: 3%
- OS (median survival) [5]: 11 (8-18) months
- TTP [5]: 3 (2-5) months
- 1-yr surv (FISH −, IHC +, P-AKT +, N 35): 43% (26-59)
- DCR (FISH −, IHC +, P-AKT +, N 35): 47%
- OR (response rate) (FISH −, IHC +, P-AKT +, N 35): 13%
- OS (median survival) (FISH −, IHC +, P-AKT +, N 35): 11 (6-15) months
- TTP (FISH −, IHC +, P-AKT +, N 35): 4 (2-6) months
- 1-yr surv (FISH −, IHC +, P-AKT −, N 23): 47% (27-68)
- DCR (FISH −, IHC +, P-AKT −, N 23): 50%
- OR (response rate) (FISH −, IHC +, P-AKT −, N 23): 6%
- OS (median survival) (FISH −, IHC +, P-AKT −, N 23): 9 (7-9) months
- TTP (FISH −, IHC +, P-AKT −, N 23): 4 (2-7) months
- 1-yr surv (FISH −, IHC −, EGFR Mut +, n 6): 0% (0-30)
- DCR (FISH −, IHC −, EGFR Mut +, n 6): 0%
- OR (response rate) (FISH −, IHC −, EGFR Mut +, n 6): 0%
- OS (median survival) (FISH −, IHC −, EGFR Mut +, n 6): 3 (1-3) months
- TTP (FISH −, IHC −, EGFR Mut +, n 6): 2 (1-2) months
- 1-yr surv [6]: 37% (21-52)
- DCR [6]: 21%
- OR (response rate) [6]: 3%
- OS (median survival) [6]: 6 (4-12) months
- TTP [6]: 2 (2-3) months
- 1-yr surv (FISH −, IHC −, P-AKT +, N 32): 29% (13-44)
- DCR (FISH −, IHC −, P-AKT +, N 32): 18%
- OR (response rate) (FISH −, IHC −, P-AKT +, N 32): 4%
- OS (median survival) (FISH −, IHC −, P-AKT +, N 32): 6 (4-10) months
- TTP (FISH −, IHC −, P-AKT +, N 32): 2 (2-3) months
- 1-yr surv (FISH −, IHC −, P-AKT −, N 17): 29% (8-51)
- DCR (FISH −, IHC −, P-AKT −, N 17): 14%
- OR (response rate) (FISH −, IHC −, P-AKT −, N 17): 0%
- OS (median survival) (FISH −, IHC −, P-AKT −, N 17): 6 (4-12) months
- TTP (FISH −, IHC −, P-AKT −, N 17): 2 (2-5) months
- 1-yr (1-year survival) [7]: 45% (30-59)
- MS (mo) (median survival) [7]: 10 (5-14) mo
- RSP (response rate) [7]: 15%
- TTP (mo) (time to progression) [7]: 3 (2-5) mo
- 1-yr (1-year survival) [8]: 67% (71-100)
- RSP (response rate) [8]: 69%
- TTP (mo) (time to progression) [8]: 16 (3-20) mo
- 1-yr (1-year survival) [9]: 42% (31-53)
- DCR (disease control rate) [9]: 29%
- MS (mo) (median survival) [9]: 10 (6-13) mo
- RSP (response rate) [9]: 3%
- TTP (mo) (time to progression) [9]: 3 (2-3) mo
- 1-yr OS (KRAS Mutation+): 49% (33%-66%)
- DC (disease control) (KRAS Mutation+): 39%
- MS (95% CI) (KRAS Mutation+): 11 (6-23)
- OR (overall response) (KRAS Mutation+): 7%
- TTP, median (95% CI) (KRAS Mutation+): 3 (2-4)
- 1-yr OS (KRAS Mutation-): 50% (40%-60%)
- DC (disease control) (KRAS Mutation-): 40%
- MS (95% CI) (KRAS Mutation-): 12 (8-15)
- TTP, median (95% CI) (KRAS Mutation-): 3 (2-4)
- DC (disease control) (P-AKT+): 49%
- MS (95% CI) (P-AKT+): 13 (10-16)
- TTP, median (95% CI) (P-AKT+): 4 (3-5)
- 1-yr survival (P-AKT+ or EGFR IHC+): 43% (32-54)
- DCR (P-AKT+ or EGFR IHC+): 34%
- MS (P-AKT+ or EGFR IHC+): 8 (6-14) mo
- RSP (P-AKT+ or EGFR IHC+): 6%
- TTP (P-AKT+ or EGFR IHC+): 3 (2-3) mo
- 1-yr survival (P-AKT+/EGFR IHC+): 63% (51-74)
- MS (P-AKT+/EGFR IHC+): 16 (12-21) mo
- RSP (P-AKT+/EGFR IHC+): 30%
- TTP (P-AKT+/EGFR IHC+): 6 (4-10) mo
- DC (disease control) (P-AKT-): 33%
- MS (95% CI) (P-AKT-): 8 (6-14)
- OR (overall response) (P-AKT-): 2%
- TTP, median (95% CI) (P-AKT-): 3 (2-5)
- DCR (P-AKT-/EGFR IHC-): 21%
- MS (P-AKT-/EGFR IHC-): 6 (5-9) mo
- TTP (P-AKT-/EGFR IHC-): 2 (2-4) mo
- Disease Control Rate (both cohorts, total): 43%
- Median Survival (both cohorts, total): 11 (8-14)
- Median Time to Progression (both cohorts, total): 3 (3-4)
- One-YR Survival (both cohorts, total): 48% (41-55)
- Overall Response (both cohorts, total): 15%
- HR, survival, multivariable (performance status 2): 3.64
- Disease Control Rate [10]: 80%
- response rate [10]: 43%
- time to progression [10]: 12 months
- Median Survival (triple positive: EGFR FISH, EGFR IHC, P-AKT, not achieved yet): exceeding 20 months
- 1-year survival [11]: 100%
- Disease Control Rate [11]: 78%
- response rate [11]: 78%
- time to progression [11]: 20 months
- Median Survival (triple positive: EGFR FISH, IHC, mutation, not yet achieved): exceeding 20 months
